# Source: US6117841A, “Substituted peptidylamine calcium channel blockers” (Warner-Lambert Company, priority 1999, dated 2000)
# Read-outs that look alike come from different tables or passages of the source.
# Molecular target: T1, N-type Ca^2+ Channel (Homo sapiens, UniProt Q00975)
# T1 construct: host or cells: IMR-32 cells differentiated with dibutyryl cAMP and bromodeoxyuridine
# Experiment: Measurement of N-type Ca2+ channel blocking potencies in IMR-32 cells using the fluorescent Ca2+ indicator Indo-1
# Assay type: cell-based
# Method: Measurement of N-type Ca^2+ Channel Blocking Potencies of Compounds in IMR-32 Cells Using the Fluorescent Ca^2 + Indicator Indo-1
# IMR-32 cells are a human tumoral cell line of neural origin. […] Calcium flux into these cells may be induced by stimulation with elevated potassium concentrations. The L-channel component of calcium flux may be blocked by adding 5 μM nitrendipine. The remaining component of calcium entry into the IMR-32 cells is due to calcium flux through N-type calcium channels. Intracellular calcium concentrations are measured using the fluorescent calcium indicator Indo-1. The effect of drug concentration on calcium uptake is studied.
# The IMR-32 cell line was obtained from the American Type Culture Collection (Rockville, Md.). Cells were grown in Eagle's Minimum Essential Medium with Earle's salts supplemented with 10% fetal bovine serum, 2 mM L-Gln and antibiotic/antimycotic mixture (Gibco). At approximately 80% confluency, differentiation was induced by the addition of 1 mM dibutyryl cAMP and 2.5 μM bromodeoxyuridine to the medium. After 7 to 13 days of differentiation, cells were detached using 0.5 mM EDTA and loaded with 5 μM Indo-1 acetoxymethyl ester (Molecular Probes, Eugene, Oreg.) at 30° C. for 45 minutes. Loaded cells were washed twice, resuspended (~10^7 cells/mL) in assay buffer (10 mM HEPES/Tris pH 7.4 in Hank's Balanced Salt Solution without bicarbonate or phenol red containing 0.5% bovine serum albumin) and kept on ice until use. Fluorescence measurements were carried out in a Photon Technology International (PTI, South Brunswick, N.J.) Model RF-F3004 spectrofluorometer with dual emission monochromators using excitation at 350 nm and emission at 400 and 490 nm. The instrument was equipped with a thermostated cuvette holder with stirring capabilities as well as with a computer-controlled pump which allowed for reagent addition during measurement. Instrument control and data collection was done by PTI's OSCAR software running on an IBM compatible computer. Different concentrations of the test compounds (60 μL in dimethyl sulfoxide) were added to 5.94 mL of assay buffer containing approximately 3×10^6 loaded cells, and 5 μM nitrendipine (in 30 μL EtOH) to block L-type Ca^2+ channels. Samples were incubated for 10 minutes at 30° C. and then aliquoted into three 10×10 mm disposable acrylic cuvettes. Emission signals at 400 and 490 nm were acquired from each cuvette at 30° C. for 50 seconds. At 20 seconds after the start of reading, cells were depolarized by the addition of 160 μL of stimulation solution (1 M KCl, 68 mM CaCl2) to the cuvette via the computer-controlled pump. Ratio of dual emission signals (400 nm/ 490 nm), which is proportional to intracellular Ca^2+ concentration, was plotted against time, and the difference between maximal response after stimulation and basal value (before stimulation) was determined. Values obtained in this way were plotted as a function of drug concentration. IC50 values of test compounds were calculated by fitting a four-parameter logistic function to the data using the least squares method.
# [1] = IMR-32 cells, 5 μM nitrendipine
# [2] = IMR-32 cells, K+ depolarization, 5 μM nitrendipine to block L-type channels, read-out: IMR 32 IC50
# T1 sequence (Q00975 whole entry): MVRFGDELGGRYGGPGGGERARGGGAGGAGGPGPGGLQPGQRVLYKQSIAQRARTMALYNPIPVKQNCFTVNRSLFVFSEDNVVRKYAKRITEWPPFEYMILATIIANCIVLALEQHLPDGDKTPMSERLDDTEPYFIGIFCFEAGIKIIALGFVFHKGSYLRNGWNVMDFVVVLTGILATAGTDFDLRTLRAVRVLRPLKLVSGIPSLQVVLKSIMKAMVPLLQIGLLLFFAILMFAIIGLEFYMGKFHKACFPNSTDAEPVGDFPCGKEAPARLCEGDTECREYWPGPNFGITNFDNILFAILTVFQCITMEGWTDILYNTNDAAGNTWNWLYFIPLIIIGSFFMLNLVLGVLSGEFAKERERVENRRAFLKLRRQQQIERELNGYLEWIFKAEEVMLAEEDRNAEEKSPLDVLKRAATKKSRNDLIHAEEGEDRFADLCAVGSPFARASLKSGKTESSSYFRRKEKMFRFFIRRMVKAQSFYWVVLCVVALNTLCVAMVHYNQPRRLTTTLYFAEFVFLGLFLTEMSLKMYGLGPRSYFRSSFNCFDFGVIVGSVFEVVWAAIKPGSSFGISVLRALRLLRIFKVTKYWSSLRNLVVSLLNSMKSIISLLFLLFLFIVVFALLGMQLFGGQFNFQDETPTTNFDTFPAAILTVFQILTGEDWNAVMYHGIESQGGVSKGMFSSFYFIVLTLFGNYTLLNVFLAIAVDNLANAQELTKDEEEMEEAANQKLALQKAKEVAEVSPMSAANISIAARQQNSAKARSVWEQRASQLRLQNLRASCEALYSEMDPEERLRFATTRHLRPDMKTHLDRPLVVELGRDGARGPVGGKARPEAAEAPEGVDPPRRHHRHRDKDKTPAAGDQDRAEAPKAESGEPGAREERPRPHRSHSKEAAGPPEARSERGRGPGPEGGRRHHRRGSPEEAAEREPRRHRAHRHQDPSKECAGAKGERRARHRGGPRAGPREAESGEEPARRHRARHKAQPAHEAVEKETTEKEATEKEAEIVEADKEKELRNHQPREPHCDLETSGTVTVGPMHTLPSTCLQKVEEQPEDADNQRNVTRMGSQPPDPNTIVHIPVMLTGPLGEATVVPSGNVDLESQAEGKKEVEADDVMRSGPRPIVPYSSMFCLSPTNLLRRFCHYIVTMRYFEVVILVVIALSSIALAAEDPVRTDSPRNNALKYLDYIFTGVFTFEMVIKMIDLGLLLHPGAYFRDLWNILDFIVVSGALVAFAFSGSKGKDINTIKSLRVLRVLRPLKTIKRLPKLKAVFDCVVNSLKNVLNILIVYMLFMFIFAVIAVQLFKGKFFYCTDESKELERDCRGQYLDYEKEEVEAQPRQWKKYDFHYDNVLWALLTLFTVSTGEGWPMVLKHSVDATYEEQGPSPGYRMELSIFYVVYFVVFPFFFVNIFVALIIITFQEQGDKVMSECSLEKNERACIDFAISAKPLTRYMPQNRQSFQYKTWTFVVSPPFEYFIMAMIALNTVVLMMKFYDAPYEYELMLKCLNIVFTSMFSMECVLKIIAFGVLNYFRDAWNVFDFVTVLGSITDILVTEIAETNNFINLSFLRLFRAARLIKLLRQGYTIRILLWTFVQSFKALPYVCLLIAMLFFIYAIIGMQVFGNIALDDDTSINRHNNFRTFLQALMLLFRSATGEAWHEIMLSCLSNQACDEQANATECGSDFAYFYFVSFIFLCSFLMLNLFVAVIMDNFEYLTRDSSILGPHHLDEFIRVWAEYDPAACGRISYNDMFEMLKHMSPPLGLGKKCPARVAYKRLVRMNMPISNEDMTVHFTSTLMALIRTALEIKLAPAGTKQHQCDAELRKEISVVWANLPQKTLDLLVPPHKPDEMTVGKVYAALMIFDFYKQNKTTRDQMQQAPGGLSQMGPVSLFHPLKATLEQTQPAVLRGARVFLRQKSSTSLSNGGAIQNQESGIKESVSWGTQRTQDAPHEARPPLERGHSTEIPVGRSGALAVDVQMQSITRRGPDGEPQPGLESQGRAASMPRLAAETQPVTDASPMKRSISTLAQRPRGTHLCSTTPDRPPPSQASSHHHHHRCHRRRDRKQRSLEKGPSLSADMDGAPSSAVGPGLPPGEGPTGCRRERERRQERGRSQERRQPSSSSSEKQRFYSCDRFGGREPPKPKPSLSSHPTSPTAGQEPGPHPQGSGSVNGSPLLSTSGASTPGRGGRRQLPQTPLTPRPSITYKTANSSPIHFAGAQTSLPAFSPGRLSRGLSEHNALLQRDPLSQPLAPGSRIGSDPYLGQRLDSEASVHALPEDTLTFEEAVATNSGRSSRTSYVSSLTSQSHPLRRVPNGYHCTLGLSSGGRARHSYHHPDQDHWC
# T1 sequence (P54284 whole entry partner): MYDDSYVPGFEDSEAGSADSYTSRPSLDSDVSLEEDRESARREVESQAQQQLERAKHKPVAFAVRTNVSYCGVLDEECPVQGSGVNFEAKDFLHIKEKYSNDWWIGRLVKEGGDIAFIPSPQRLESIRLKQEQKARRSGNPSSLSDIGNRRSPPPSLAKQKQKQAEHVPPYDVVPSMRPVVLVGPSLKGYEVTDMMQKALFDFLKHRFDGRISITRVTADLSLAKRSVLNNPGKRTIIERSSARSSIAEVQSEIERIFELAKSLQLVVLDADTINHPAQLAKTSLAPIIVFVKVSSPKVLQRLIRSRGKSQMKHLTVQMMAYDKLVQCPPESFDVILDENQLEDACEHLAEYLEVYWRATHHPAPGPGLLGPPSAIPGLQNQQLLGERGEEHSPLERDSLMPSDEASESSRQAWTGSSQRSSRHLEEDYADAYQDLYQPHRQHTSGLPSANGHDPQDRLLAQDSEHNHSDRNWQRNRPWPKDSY
# T1 sequence (P54289 25-946 partner limits assumed): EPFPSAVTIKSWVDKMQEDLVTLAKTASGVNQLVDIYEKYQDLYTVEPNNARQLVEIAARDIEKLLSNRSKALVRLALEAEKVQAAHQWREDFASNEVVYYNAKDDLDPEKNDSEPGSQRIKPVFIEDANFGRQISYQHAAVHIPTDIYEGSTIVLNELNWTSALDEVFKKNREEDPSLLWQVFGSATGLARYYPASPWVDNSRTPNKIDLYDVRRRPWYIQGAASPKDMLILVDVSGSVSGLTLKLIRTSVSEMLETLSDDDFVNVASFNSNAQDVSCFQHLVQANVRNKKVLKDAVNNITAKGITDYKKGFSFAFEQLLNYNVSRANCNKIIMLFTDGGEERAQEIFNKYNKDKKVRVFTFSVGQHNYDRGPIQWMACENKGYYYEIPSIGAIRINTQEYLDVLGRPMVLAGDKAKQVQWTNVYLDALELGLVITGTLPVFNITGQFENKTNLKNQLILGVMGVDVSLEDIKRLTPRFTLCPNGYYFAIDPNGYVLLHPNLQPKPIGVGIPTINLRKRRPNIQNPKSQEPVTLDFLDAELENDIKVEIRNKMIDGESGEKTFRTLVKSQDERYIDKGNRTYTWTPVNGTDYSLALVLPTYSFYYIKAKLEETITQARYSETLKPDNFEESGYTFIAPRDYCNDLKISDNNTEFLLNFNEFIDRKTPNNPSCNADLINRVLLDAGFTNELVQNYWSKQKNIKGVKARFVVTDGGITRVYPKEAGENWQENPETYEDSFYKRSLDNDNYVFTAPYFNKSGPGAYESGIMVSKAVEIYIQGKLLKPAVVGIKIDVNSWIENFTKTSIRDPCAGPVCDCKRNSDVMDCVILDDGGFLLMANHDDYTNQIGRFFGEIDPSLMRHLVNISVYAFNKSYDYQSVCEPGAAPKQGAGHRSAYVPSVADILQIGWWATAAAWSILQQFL
# T1 sequence (P54289 947-1103 partner limits assumed): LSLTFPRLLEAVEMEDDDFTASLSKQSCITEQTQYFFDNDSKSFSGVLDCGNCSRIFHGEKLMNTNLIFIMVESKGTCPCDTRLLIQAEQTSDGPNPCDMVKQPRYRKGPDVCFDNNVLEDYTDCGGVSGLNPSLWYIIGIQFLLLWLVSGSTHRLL
Compound,IMR 32 % of Blockade @ 1 μM [1],IC50 [2],also measured
"CC(C)C[C@@H](C(=O)N[C@@H](Cc1ccc(OCc2ccccc2)cc1)C(=O)NCCN1CCCCC1)N(C)C (relative stereo) [Example 3, [S-(R*,R*)]-2-Dimethylamino-4-methyl-pentanoic acid [2-(4-benzyloxy-phenyl)-1-(2-piperidin-1-yl-ethylcarbamoyl)-ethyl]-amide]",21%,,IMR 32 % of Blockade @ 10 μM [1]: 70%
"CCC(COC)NC(=O)[C@H](Cc1ccc(OCc2ccccc2)cc1)NC(=O)[C@H](CC(C)C)N(C)CCC(C)C (relative stereo) [Example 63, [S-(R*,R*)]-4-Methyl-2-[methyl-(3-methyl-butyl)-amino]-pentanoic acid [2-(4-benzyloxy-phenyl)-1-(1-methoxymethyl-propylcarbamoyl)-ethyl]-amide]",,800 nM,
"CC(C)CCN[C@@H](CC(C)C)C(=O)N[C@@H](Cc1ccc(OCc2ccccc2)cc1)C(=O)NC(C)(C)C (relative stereo) [Example 105, [S-(R*,R*)]-4-Methyl-2-(3-methyl-butylamino)-pentanoic acid [2-(4-benzyloxy-phenyl)-1-tert-butylcarbamoyl-ethyl]-amide]",,240 nM,
"CC(C)C[C@@H](C(=O)N[C@@H](Cc1ccc(OCc2ccccc2)cc1)C(=O)N1CCN(C)CC1)N(C)Cc1ccc(C(C)(C)C)cc1 (relative stereo) [Example 18, [S-(R*,R*)]-2-[(4-tert-Butyl-benzyl)-methyl-amino]-4-methyl-pentanoic acid [1-(4-benzyloxy-benzyl)-2-(4-methyl-piperazin-1-yl)-2-oxo-ethyl]-amide]",52%,,IMR 32 % of Blockade @ 10 μM [1]: 95%
"CC(C)C[C@@H](C(=O)N[C@@H](Cc1ccc(OCc2ccccc2)cc1)C(=O)N1CCCCC1)N(C)C1CCCCC1 (relative stereo) [Example 20, [S-(R*,R*)]-2-(Cyclohexyl-methyl-amino)-4-methyl-pentanoic acid [2-(4-benzyloxy-phenyl)-1-(piperidine-1-carbonyl)-ethyl]-amide]",65%,,IMR 32 % of Blockade @ 10 μM [1]: 87%
"CC(C)C[C@@H](C(=O)N[C@@H](Cc1ccc(OCc2ccccc2)cc1)C(=O)N1CCN(Cc2ccccc2)CC1)N(C)CC1CCCCC1 (relative stereo) [Example 28, [S-(R*,R*)]-2-(Cyclohexylmethyl-methyl-amino)-4-methyl-pentanoic acid [1-(4-benzyloxy-benzyl)-2-(4-benzyl-piperazin-1-yl)-2-oxo-ethyl]-amide]",,500 nM,
"CC(C)C[C@@H](C(=O)N[C@@H](Cc1ccc(OCc2ccccc2)cc1)C(=O)NC1CCN(Cc2ccccc2)CC1)N(C)C1CCCCC1 (relative stereo) [Example 23, [S-(R*,R*)]-2-(Cyclohexyl-methyl-amino)-4-methyl-pentanoic acid [2-(4-benzyloxy-phenyl)-1-(1-benzyl-piperidin-4-ylcarbamoyl)-ethyl]-amide]",53%,,"IMR 32 % of Blockade @ 3 μM (3 μM, IMR-32 cells, 5 μM nitrendipine): 80%"
"CC(C)CC(NC1CCOCC1)C(=O)NC(Cc1ccc(OCc2ccccc2)cc1)C(=O)NC(C)(C)CO (stereo not drawn) [Example 73, [S-(R*,R*)]-4-Methyl-2-(tetrahydro-pyran4-ylamino)-pentanoic acid [2-(4-benzyloxy-phenyl)-1-(2-hydroxy-1,1-dimethyl-ethylearbamoyl)-ethyl]-amide]",,2700 nM,
"CC(C)CC(C(=O)NC(Cc1ccc(OCc2ccccc2)cc1)C(=O)NC(C)(C)C)N(C)Cc1ccc(F)cc1 (stereo not drawn) [Example 80, [S-(R*,R*)]-2-[(4-Fluoro-benzyl)-methyl-amino]-4-methyl-pentanoic acid [2-(4-benzyloxy-phenyl)-1-tert-butylcarbamoyl-ethyl]-amide]",,300 nM,
"CCC(CO)(CO)NC(=O)C(Cc1ccc(OCc2ccccc2)cc1)NC(=O)C(CC(C)C)NC1CCOCC1 (stereo not drawn) [Example 74, [S-(R*,R*)]-4-Methyl-2-(tetrahydro-pyran-4-ylamino)-pentanoic acid [2-(4-benzyloxy-phenyl)-1-(1,1-bis-hydroxymethyl-propylcarbamoyl)-ethyl]-amide]",,2600 nM,
"[S-(R*,R*)]-3-Methyl-2-[methyl-(3-methyl-butyl)-amino]-pentanoic acid [2-(4-benzyloxy-phenyl)-1-tert-butylcarbamoyl-ethyl]-amide [Example 44]",,,IMR 32 % of Blockade @ 0.3 μM: 35%; IMR 32 % of Blockade @ 3 μM: 74%
"CC(C)C[C@@H](C(=O)N[C@@H](Cc1ccc(OCc2ccccc2)cc1)C(=O)N1CCCCC1)N(C)C (relative stereo) [Example 2, [S-(R*,R*)]-2-Dimethylamino-4-methyl-pentanoic acid [2-(4-benzyloxy-phenyl)-1-(piperidine-1-carbonyl)-ethyl]-amide]",36%,,IMR 32 % of Blockade @ 10 μM [1]: 92%
"CC(C)CCN(C)CC(=O)NC(Cc1ccc(OCc2ccccc2)cc1)C(=O)NC(C)(C)C (stereo not drawn) [Example 102, [S-(R*,R*)]-3-(4-Benzyloxy-phenyl)-N-tert-butyl-2-{2-[methyl-(3-methyl-butyl)-amino]-acetylamino}-propionamide]",,1600 nM,
"CC(C)C[C@@H](C(=O)N[C@@H](Cc1ccc(OCc2ccccc2)cc1)C(=O)N1CCN(Cc2ccccc2)CC1)N(C)C1CCCCC1 (relative stereo) [Example 22, [S-(R*,R*)]-2-(Cyclohexyl-methyl-amino)-4-methyl-pentanoic acid [1-(4-benzyloxy-benzyl)-2-(4-benzyl-piperazin-1-yl)-2-oxo-ethyl]-amide]",57%,,IMR 32 % of Blockade @ 10 μM [1]: 87%
"CC(C)C[C@H](NC1CCOCC1)C(=O)N[C@@H](Cc1ccc(OCc2ccccc2)cc1)C(=O)NC1CCN(Cc2ccccc2)C1 (relative stereo) [Example 76, [S-(R*,R*)]-4-Methyl-2-(tetrahydro-pyran4-ylamino)-pentanoic acid [2-(4-benzyloxy-phenyl)-1-(1-benzyl-pyrrolidin-3-ylcarbamoyl)-ethyl]-amide]",,600 nM,
"CC(C)C[C@@H](C(=O)N[C@@H](Cc1ccc(OCc2ccccc2)cc1)C(=O)NC(C)(C)CO)N1CCOCC1 (relative stereo) [Example 123, [S-(R*,R*)]-4-Methyl-2-morpholin-4-yl-pentanoic acid [2-(4-benzyloxy-phenyl)-1-(2-hydroxy-1,1-dimethyl-ethylcarbamoyl)-ethyl]-amide]",,,"IC50 (IMR-32 cells, 5 μM nitrendipine, Examples 116-140, read-out: IMR 32% of Blockade @): 13000 nM"
"CC(C)CCN(C)C(CC(C)C)C(=O)NC(Cc1ccc(OCc2ccccc2)cc1)C(=O)NCCNCCO (stereo not drawn) [Example 66, [S-(R*,R*)]-4-Methyl-2-[methyl-(3-methyl-butyl)-amino]-pentanoic acid {2-(4-benzyloxy-phenyl)-1-[2-(2-hydroxy-ethylamino)-ethylcarbamoyl]-ethyl}-amide]",,1900 nM,
"CC(C)C[C@@H](C(=O)N[C@@H](Cc1ccc(OCc2ccccc2)cc1)C(=O)NC(C)(C)C)N(C)C1CCC(C)CC1 (relative stereo) [Example 39, [S-(R*,R*)]-4-Methyl-2-[methyl-(4-methyl-cyclohexyl)-amino]-pentanoic acid [2-(4-benzyloxy-phenyl)-1-tert-butylcarbamoyl-ethyl]-amide]",,390 nM,
"CC(C)C[C@@H](C(=O)N[C@@H](Cc1ccc(OCc2ccccc2)cc1)C(=O)NC(C)(C)C)N1CCOCC1 (relative stereo) [Example 94, [S-(R*,R*)]-4-Methyl-2-morpholin-4-yl-pentanoic acid [2-(4-benzyloxy-phenyl)-1-tert-butylcarbamoyl-ethyl]-amide]",24%,,
"CC(C)C[C@@H](C(=O)N[C@@H](Cc1ccc(OCc2ccccc2)cc1)C(=O)NC(C)(C)C)N(C)Cc1ccc(O)cc1 (relative stereo) [Example 82, [S-(R*,R*)]-2-[(4-Hydroxy-benzyl)-methyl-amino]-4-methyl-pentanoic acid [2-(4-benzyloxy-phenyl)-1-tert-butylcarbamoyl-ethyl]-amide]",,1300 nM,
